Data as given in patent publication US10793557B2, “Sting agonist compounds” (Merck Sharp & Dohme Corp., priority 2018, dated 2020).

Tests used:
[1] = test system: secretion of interferon-beta from THP1 cells; assay: IFN-β secretion in THP1 cell culture (5 h); assay type: cell-based; conditions: Homo sapiens, THP-1, 5 h, 30 uM cGAMP = 100%; for activation at 30 µM: compound at 30 μM, read-out: % Effect at 30 μM relative to 2′3′-cGAMP
How it was run: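 IFN-β in supernatant measured by AlphaLISA after a 5 h, 37 °C incubation of THP1 cells with compound (10 concentrations, 30000 down to 1.5 nM, 0.3% DMSO) in low-serum RPMI. Values scaled between DMSO and 30 uM cGAMP controls; 4-parameter curve fit yields EC50.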

full-length HAQ STING = molecular target: T1, full-length HAQ STING (Homo sapiens, UniProt Q86WV6, G230A/H232R/R293Q/R71H); assay: 3H-cGAMP filtration binding assay (HAQ STING); conditions: competition with tritiated cGAMP, HAQ STING membrane
T1 construct: AviTag (after GG linker) (C); HRV3C cleavage site (after GS linker) (C); HIS8 (C); made in house; host or cells: Trichoplusia ni (Hi-Five) insect cells infected with baculovirus (virus generated and amplified in Sf21 cells); used as a washed membrane preparation
T1 sequence (Q86WV6 with tags, fused parts or gaps R71H/G230A/H232R/R293Q): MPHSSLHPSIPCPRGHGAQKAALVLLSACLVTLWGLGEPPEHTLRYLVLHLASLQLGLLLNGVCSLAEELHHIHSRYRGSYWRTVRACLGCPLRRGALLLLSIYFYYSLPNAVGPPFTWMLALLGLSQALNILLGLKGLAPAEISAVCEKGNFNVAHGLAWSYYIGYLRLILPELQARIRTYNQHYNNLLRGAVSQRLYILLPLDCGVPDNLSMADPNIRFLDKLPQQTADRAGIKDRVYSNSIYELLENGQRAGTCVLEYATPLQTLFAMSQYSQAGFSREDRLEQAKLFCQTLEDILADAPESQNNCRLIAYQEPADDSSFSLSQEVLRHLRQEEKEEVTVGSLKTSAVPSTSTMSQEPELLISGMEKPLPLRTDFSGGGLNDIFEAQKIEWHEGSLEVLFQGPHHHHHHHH
How it was run: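 Hi-Five (T. ni) membranes overexpressing the STING variant (2.2 ug/ml working) preincubated with compound 60 min at RT in PBS, then [3H]cGAMP (8 nM working stock) added for 60 min at RT. Bound radioactivity captured on GF/B filters and counted by scintillation; EC50 from 4-parameter fit of control-normalized activity.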

full-length WT STING = molecular target: T2, full-length WT STING (Homo sapiens, UniProt Q86WV6, H232R); assay: 3H-cGAMP filtration binding assay (WT STING); conditions: competition with tritiated cGAMP, WT STING membrane
T2 construct: AviTag (after gg linker) (C); HRV3C cleavage site (after gs linker) (C); HIS8 (C); made in house; host or cells: Trichoplusia ni (Hi-Five) insect cells infected with baculovirus (virus generated and amplified in Sf21 cells); used as a washed membrane preparation
T2 sequence (Q86WV6 with tags, fused parts or gaps H232R): as the sequence (Q86WV6 with tags, fused parts or gaps R71H/G230A/H232R/R293Q) above, with H71R, A230G, Q293R counted along it
How it was run: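 EC50 values come from 4-parameter fits of remaining filter-bound tritium versus log concentration (10-point, 1:3 dilution). Insect-cell membranes carrying full-length WT STING were incubated 60 min at RT with compound and tritiated cGAMP (16 nM working stock) before filtration.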

SMILES	EC50 (full-length HAQ STING) [nM]	EC50 (full-length WT STING) [nM]	activation at 30 µM [1] [%]	activation at 3 µM ([1]; compound at 3 uM, read-out: % Effect relative to 2′3′-cGAMP (@ 3 uM)) [%]
COc1cc2sc(C(=O)C[C@H](C)C(=O)O)cc2c(F)c1CCCOc1c(OC)cc2sc(CC[C@H](C)C(=O)O)cc2c1F [Example 105, (S)-4-(5-(3-((2-((S)-3-carboxybutyl)-4-fluoro-6-methoxybenzo[b]thiophen-5-yl)oxy)propyl)-4-fluoro-6-methoxybenzo[b]thiophen-2-yl)-2-methyl-4-oxobutanoic acid]	39	311	130	
COc1cc2sc(C(=O)C[C@H](C)C(=O)O)cc2cc1OCCOc1ccc2cc(C(=O)CCC(=O)O)sc2c1 [Example 56, (S)-4-(5-(2-((2-(3-carboxypropanoyl)benzo[b]thiophen-6-yl)oxy)ethoxy)-6-methoxybenzo[b]thiophen-2-yl)-2-methyl-4-oxobutanoic acid]	1070	3130	30	
COc1cc2sc(CC[C@H](C)C(=O)O)cc2cc1CCCc1cc2cc(C(=O)CCC(=O)O)sc2cc1OC [Example 31, (S)-4-(5-(3-(2-(3-carboxybutyl)-6-methoxybenzo[b]thiophen-5-yl)propyl)-6-methoxybenzo[b]thiophen-2-yl)-4-oxobutanoic acid]	3320	9480	117	
COc1cc2cc(C(=O)CCC(=O)O)sc2cc1OCCCOc1c(OC)cc2sc(C(=O)CCC(=O)O)cc2c1F [Example 125, 4-(6-(3-((2-(3-carboxypropanoyl)-4-fluoro-6-methoxybenzo[b]thiophen-5-yl)oxy)propoxy)-5-methoxybenzo[b]thiophen-2-yl)-4-oxobutanoic acid]	1	5	156	
COc1cc2sc(C(=O)C[C@H](C)C(=O)O)cc2cc1CCCOc1c(OC)cc2sc(C(=O)C[C@@H](C)C(=O)O)cc2c1F [Example 109, (S)-4-(5-(3-((2-((R)-3-carboxybutanoyl)-4-fluoro-6-methoxybenzo[b]thiophen-5-yl)oxy)propyl)-6-methoxybenzo[b]thiophen-2-yl)-2-methyl-4-oxobutanoic acid]	10	39	96	
COc1cc2sc(C(=O)[C@H]3C[C@@H]3C(=O)O)cc2cc1OCCCOc1cc2cc(C(=O)[C@@H]3C[C@H]3C(=O)O)sc2cc1OC [Example 80, rac-(1S,2S)-2-(5-(3-((2-((1R, 2R)-2-carboxy-cyclopropane-1-carbonyl)-6-methoxybenzo[b]thiophen-5-yl)oxy)propoxy)-6-methoxybenzo[b]thiophene-2-carbonyl)cyclopropane-1-carboxylic acid]	1300	12700	12	
COc1cc2sc(C(=O)C[C@@H](C)C(=O)O)cc2cc1CCCOc1c(OC)cc2sc(C(=O)C[C@H](C)C(=O)O)cc2c1F [Example 91, (R)-4-(5-(3-((2-((S)-3-carboxybutanoyl)-4-fluoro-6-methoxybenzo[b]thiophen-5-yl)oxy)propyl)-6-methoxybenzo[b]thiophen-2-yl)-2-methyl-4-oxobutanoic acid]	7	30	109	
COc1cc2sc(C(=O)C[C@H](C)C(=O)O)cc2c(F)c1OCCCCOc1c(OC)cc2sc(C(=O)C[C@H](C)C(=O)O)cc2c1Cl [Example 130, (S)-4-(5-(4-((2-((S)-3-carboxybutanoyl)-4-chloro-6-methoxybenzo[b]thiophen-5-yl)oxy)butoxy)-4-fluoro-6-methoxybenzo[b]thiophen-2-yl)-2-methyl-4-oxobutanoic acid]	3	25	61	

Second part, led by results:

EC50 (full-length HAQ STING) [nM]	EC50 (full-length WT STING) [nM]	SMILES	activation at 30 µM [1] [%]	activation at 3 µM ([1]; compound at 3 uM, read-out: % Effect relative to 2′3′-cGAMP (@ 3 uM)) [%]
1	2	COc1cc2sc(C(=O)C[C@H](C)C(=O)O)cc2c(Cl)c1OCCCOc1c(O)cc2sc(C(=O)C[C@H](C)C(=O)O)cc2c1F [Example 190, (S)-4-(5-(3-((2-((S)-3-carboxybutanoyl)-4-chloro-6-methoxybenzo[b]thiophen-5-yl)oxy)propoxy)-4-fluoro-6-hydroxybenzo[b]thiophen-2-yl)-2-methyl-4-oxobutanoic acid]		126
623	4240	COc1cc2sc(CC[C@H](C)C(=O)O)cc2c(F)c1OCCCOc1c(OC)cc2sc(CC[C@H](C)C(=O)O)cc2c1F [Example 116, (2S,2′S)-4,4′-(5,5′-(propane-1,3-diylbis(oxy))bis(4-fluoro-6-methoxybenzo[b]thiophene-5,2-diyl))bis(2-methylbutanoic acid)]	8	
33	327	COc1cc2sc(C(=O)C[C@H](C)C(=O)O)cc2cc1CCCNc1cc2cc(C(=O)C[C@H](C)C(=O)O)sc2cc1OC [Example 61, (S)-4-(5-(3-((2-((S)-3-carboxybutanoyl)-6-methoxybenzo[b]thiophen-5-yl)amino)propyl)-6-methoxybenzo[b]thiophen-2-yl)-2-methyl-4-oxobutanoic acid]	62	
40	45	COc1cc2sc(C(=O)C[C@H](C)C(=O)O)cc2cc1OCCOc1c(OC)cc2sc(C(=O)C[C@H](C)C(=O)O)cc2c1F [Example 67, (S)-4-(5-(2-((2-((S)-3-carboxybutanoyl)-4-fluoro-6-methoxybenzo[b]thiophen-5-yl)oxy)ethoxy)-6-methoxybenzo[b]thiophen-2-yl)-2-methyl-4-oxobutanoic acid]	92	
1	1	COc1cc2sc(C(=O)C[C@H](C)C(=O)O)cc2c(F)c1CCCOc1c(OC)cc2sc(C(=O)CCC(=O)O)cc2c1F [Example 163, (S)-4-(5-(3-((2-(3-carboxypropanoyl)-4-fluoro-6-methoxybenzo[b]thiophen-5-yl)oxy)propyl)-4-fluoro-6-methoxybenzo[b]thiophen-2-yl)-2-methyl-4-oxobutanoic acid]	135	
1	5	COc1cc2sc(C(=O)C[C@H](C)C(=O)O)cc2nc1OCCCOc1c(OC)cc2sc(C(=O)CCC(=O)O)cc2c1F [Example 21, (S)-4-(5-(3-((2-(3-carboxypropanoyl)-4-fluoro-6-methoxybenzo[b]thiophen-5-yl)oxy)propoxy)-6-methoxythieno[3,2-b]pyridin-2-yl)-2-methyl-4-oxobutanoic acid]	59	
1	3	COc1cc2sc(C(=O)C[C@H](C)C(=O)O)cc2cc1OCCCOc1c(OC)cc2sc(C(=O)[C@@H]3CC[C@H]3C(=O)O)cc2c1F [Example 170, trans-2-(5-(3-((2-((S)-3-carboxybutanoyl)-6-methoxybenzo[b]thiophen-5-yl)oxy)propoxy)-4-fluoro-6-methoxybenzo[b]thiophene-2-carbonyl)cyclobutanecarboxylic acid]	86	
15	93	COc1cc2sc(C(=O)C[C@H](C)C(=O)O)cc2c(F)c1OCC1(COc2c(OC)cc3sc(C(=O)C[C@H](C)C(=O)O)cc3c2F)CC1 [Example 144, (2S,2′S)-4,4′-(((cyclopropane-1,1-diylbis-(methylene))bis (oxy))bis(4-fluoro-6-methoxybenzo[b]thiophene-5,2-diyl))bis(2-methyl-4-oxobutanoic acid)]	8	
